Data taken from PubChem BioAssay AID449762 (Southern Research Specialized Biocontainment Screening …, 2010).
Results filed as inconclusive are left out.

System: M. tuberculosis H37Rv growth inhibition, 7H9 media
Assay: M. tuberculosis growth inhibition, HTS (AID 449762);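 further: bacterial growth assessed after seven days of incubation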
Settings: for IC90: measured here: IC90 growth inhibition

Structure (SMILES) | IC50 [µM] | IC90 [µM]
O=C(O)c1[nH]c(=O)[nH]c(=O)c1F | 4.58 | 14.2
CCN(CC)S(=O)(=O)c1ccc2[nH]cc(C(=O)NCCC3=CCCCC3)c(=O)c2c1 | 40.7 | > 100
CCOC(=O)Cc1csc(NC(=O)c2c(O)c3c(n(CC(C)C)c2=O)CCCC3)n1 | 5.19 | 72
CN1CCc2cc3c(c4c2C1Cc1ccccc1-4)OCO3 (stereo unspecified) | 1.66 | 1.94
O=[N+]([O-])c1ccc(O)c(-c2cc(C(F)(F)F)nc(-c3ccccc3)n2)c1 | 22.2 | 23.3
O=C(/C=C/c1cn(-c2ccccc2)nc1-c1cccnc1)c1ccco1 | 14.8 | 46.6
CCc1ccc(N=C2NC(=O)/C(=C/c3cc(OC)c(O)c(OC)c3)S2)cc1 | 33.2 | > 100
Cc1cc(C)n(-c2nc(NCCN(C)C)c3c4c(sc3n2)CCCC4)n1 | 14.6 | 18.6
CCOC(=O)N1CCN=C1SCc1ccc(C(F)(F)F)cc1 |  | > 100
C=CC[N@@+]12CC[C@]34c5ccccc5N5/C=C6\C7N(/C=C(\C53)[C@@H](C[C@@H]41)/C(=C/CO)C2)c1ccccc1[C@@]71CC[N@@+]2(CC=C)C/C(=C\CO)[C@@H]6C[C@@H]12 (stereo partly specified) | 56.7 | > 100
CCCCN(C)S(=O)(=O)c1ccc(C(=O)Nc2nnc(-c3ccco3)o2)cc1 | 8.02 | 21.2
CCOC(=O)c1ccc(N=C2SC(C(=O)Nc3ccc(C(=O)O)cc3)CC(=O)N2Cc2cccs2)cc1 (stereo unspecified) |  | > 100
C=CC[n+]1ccn(-c2nc3ccccc3nc2[N-]S(=O)(=O)c2cccs2)c1 | 25 | 28.1
CC(OC(=O)c1cnc2ccccc2n1)c1ccccc1Cl (stereo unspecified) | 13.1 | 37
O=C(COc1ccccc1)NNc1nc2ccccc2s1 | 48.4 | > 100
Cc1ccc(S(=O)(=O)NNC(=O)c2cc([N+](=O)[O-])c(C)c([N+](=O)[O-])c2)cc1 | 7.57 | 12.5
Cc1noc(C)c1COc1ccc(C(=O)OCC(=O)NC23CC4CC(CC(C4)C2)C3)cc1 | 8.33 | 24.5
CCOC(=O)CSc1ccc(C(=O)Nc2ccc(OC)cc2)cn1 | < 0.2 | > 100
CCCCCc1ccc(-c2cn(Cc3cccc(OC)c3)nn2)cc1 | 20.7 | 50
CC(CC(=O)Nc1ccc(Cl)c([N+](=O)[O-])c1)c1ccccc1 (stereo unspecified) | 16 | 40.7
Cc1nnc(-c2ccccc2)c(=O)n1/N=C/c1c(O)ccc2ccccc12 | 24.1 | 27.3
Cc1ccc(NC(=O)CNCc2cccs2)cc1Br | 99.6 | > 100

Structure (SMILES) | IC50 [µM] | IC90 [µM]
S=C(Nc1ccc(Cl)cc1)NC1CC2CCC(C1)N2Cc1ccccc1 (stereo unspecified) | 10.9 | 14.8
COc1cc(NC(=O)c2ccc(COc3ccccc3Br)o2)cc(OC)c1OC | 44.3 | > 100
O=c1c2cc(-c3ccccc3)sc2ncn1/N=C/c1ccco1 | 82.7 | > 100
CCN1CSC(=S)N(Cc2ccccc2)C1 | 10.5 | 24.1
O=c1c(C=NCCN2CCNCC2)c(O)n(C2CCCCC2)c(=O)n1C1CCCCC1 | 21 | 28.5
COc1cc2[nH]c3c(N4CCN(c5ccccn5)CC4)ncnc3c2cc1OC | 13.6 | > 50
Cc1ccc(-n2[nH]c(C)c(C=Nc3ccc(S(=O)(=O)Nc4nccs4)cc3)c2=O)c(C)c1 | 5.73 | 17
CC1CCCC(C)N1/N=C/c1c[nH]c2ccc(Br)cc12 (stereo unspecified) | 23.3 | 26.3
CC(C)(C)OC(=O)NCCCCCc1nnc(SCc2ccc(F)cc2)o1 | 14.2 | 48.2
COc1ccc(-c2cc(C3CCN(C(=O)OC(C)(C)C)CC3)[nH]n2)cc1 | 17 | 30.6
CC(=O)N(Cc1ccc(F)cc1)C1=C(NCCc2ccccc2)C(=O)c2ccccc2C1=O | 5.83 | 6.59
O=[N+]([O-])c1ccc(S(=O)(=O)c2ccccc2)nc1 | 1.01 | 2.08
C/C(=C\C(=O)c1ccccc1)Nc1ccc(Cl)c(Br)c1 |  | > 100
CCc1ccc2[nH]c(=O)c(CN(CCCN3CCOCC3)C(=O)Nc3cccc(Cl)c3)cc2c1 | 24.1 | 30.4
O=C(Nc1nc2c(s1)CCCC2)c1cc(-c2ccc3c(c2)OCO3)nc2ccccc12 | 66 | > 100
COC(=O)CSc1nnc(-c2sc3cc(OC)ccc3c2Cl)n1C | 9.08 | > 100
CC1(C)CC(=O)C2=C(C1)NC(Nc1nc3ccccc3o1)=NC2c1ccccn1 (stereo unspecified) | < 0.2 | 2.31
O=C(OCC(=O)N1CCCc2ccccc21)c1ccc(S(=O)(=O)C(F)F)cc1 | 24.1 | 38
CCOC(=O)/C(=N/Nc1ccc(OC)cc1)N1CCCc2ccccc21 | 78.1 | > 100
c1ccc(CN2CCC(Nc3nc(-c4ccccc4)nc4ccccc34)CC2)cc1 | 10.3 | 16.3
c1ccc(-c2nnc(-c3ccccn3)nn2)nc1 | 3.61 | 6.27
O=C(/C=C/c1ccco1)Oc1ccc(C(=S)N2CCOCC2)cc1 | 38.7 | > 100

Structure (SMILES) | IC50 [µM] | IC90 [µM]
Nc1c(N(CCC2=CCCCC2)C(=O)c2ccc([N+](=O)[O-])o2)c(=O)[nH]c(=O)n1Cc1ccccc1 | 16.6 | 30.2
FC(F)(F)c1cc(CO[C@@H]2CCCN[C@@H]2c2ccccc2)cc(C(F)(F)F)c1 | 24.5 | 28.8
Cc1cc2[nH]c3c(c[n+](C)c4ccccc34)c2cc1C | 8.57 | 13.1
CCCOC(=O)c1ccc(-c2ccc(C=O)o2)cc1 | 0.82 | > 100
O=C(NC1CCCCCC1)c1ccccc1-c1ccccc1 | 18.4 | > 100
CSc1nsc(/C=C/Nc2ccc(O)cc2C)c1C#N | 27 | 43
O=C(c1ccccc1)c1nn(-c2ccc(Cl)cc2)c(=O)cc1C(F)(F)F | 12 | 19.6
Cc1cc(C)c2oc(-c3ccc(C)c(NC(=S)NC(=O)/C=C/c4ccco4)c3)nc2c1 | 59.8 | > 100
CCOC(=O)c1cnc(-n2nc(C)cc2C)nc1NNc1cc(C)nc(-c2ccccc2)n1 | 23.7 | 92
Cc1ccc(S(=O)(=O)Nc2cccc3ncccc23)s1 | < 0.2 | 3.93
CCCSc1nnc(Sc2nnnn2-c2ccccc2)s1 | 10.2 | 33
Cc1cc(C)n2nc(/C(C#N)=C/c3ccccn3)c(C#N)c2n1 | 0.97 | 17.6
CCCCCCC[N+](CC)(CC)CCCCc1ccc(Cl)cc1 | 24.7 | 27.8
O=[N+]([O-])c1cc(-c2nc(-c3ccncc3)no2)cc([N+](=O)[O-])c1 | 3.64 | 11.4
Nc1n[nH]c(C2CC2)c1N=Nc1ccc(Cl)cc1 | 19.3 | 41
COC(=O)c1c(NC(=O)C(=O)N2CCCC2)sc2c1CC(C)(C)OC2 | 9.46 | 27.7
CCc1ccc(NC2=NCC(c3ccccc3)S2)cc1 (stereo unspecified) | 3.03 | > 100
COc1ccc(NC(=O)NC(C)C2CC3CCC2C3)cc1 (stereo unspecified) | 23.6 | 27.1
CCN(CC)CCOC(=O)c1ccc(N/C=C(/C#N)c2nc(-c3ccc4c(c3)OCO4)cs2)cc1 | 28.4 | 53.3
O=C(CNC(=O)c1ccco1)OCc1ccc(C(=O)Oc2ccccc2)cc1 | 4.52 | 16.2
Cc1oc(C(=O)Nc2ccc(O)cc2)cc1COc1ccccc1 | 12.5 | 43.6
COc1ccc(-c2ccc(C#N)c(SCC(=O)OCc3ccccc3)n2)cc1OC | 20.1 | 69.5

Structure (SMILES) | IC50 [µM] | IC90 [µM]
CCn1c(=O)c(CCC(=O)N2CCN(c3ccccn3)CC2)c(C)c2c(C)nn(-c3cccc(C)c3)c21 | 19.5 | 27.5
CCOC(=O)CSc1ncnc2c1sc1nc(N3CCOCC3)c3c(c12)CCCC3 | 23.3 | 26.2
CC1(C)c2[nH]c3ccccc3c2C[C@@H]2C(=O)N(Cc3ccccc3F)C(=O)N21 | 47.1 | > 100
COc1ccc(OCc2cccc(C(=O)Nn3cc([N+](=O)[O-])cn3)c2)cc1 | 9.92 | 36.5
Cc1ccc(-c2nc3c(c(=O)c4ccccc4n3C)c(=O)n2Cc2ccco2)cc1 | 11.4 | 36.3
Cc1cc(-c2n[nH]c(=S)n2/N=C/C(Br)=C/c2ccccc2)n[nH]1 | 2.08 | 5.63
CCCCCOc1ccc(NC2=CC(=O)CCC2)cc1 | 52.4 | > 100
CN(C)c1ccc(CNC2C3CC4CC(C3)CC2C4)cc1 (stereo unspecified) | 11.8 | 13
Cc1ccccc1C(=O)Nc1ccc(N(C)C)c2ccccc12 | 16.6 | > 100
C=CCc1c(C)nc(C)nc1N/N=C/c1ccccc1O | 2.25 | 4.08
Cc1cc(C(=O)CCl)c(C)n1CCc1ccc(Cl)cc1 | 0.34 | 2.18
CCOC(=O)c1ccc(N=C2C(=S)N(c3ccc(C(=O)OCC)cc3)C(=N)N2/N=C/c2ccccc2)cc1 | 68.9 | > 100
CCOC(=O)C1CCN(CC(O)COc2ccc(C(C)(C)CC)cc2)CC1 (stereo unspecified) | 22.8 | 29.5
O=C(OCC(=O)N1CCCCC1)c1cc2ccccc2cc1O | 5 | 9.61
C=C1c2c(Cl)ccc(O)c2C(O)=C2C(=O)[C@]3(O)C(O)=C(C(N)=O)C(=O)[C@@H](N(C)C)[C@@H]3[C@@H](O)C12 (stereo partly specified) | 1.06 | 4.88
C/C(=N\Nc1ccc(Cl)c(Cl)c1)c1ccc(-n2ccnc2)cc1 | 65.8 | 86.4
CC(C)(C)c1ccc(C(=O)CSc2n[nH]c(=O)[nH]c2=O)cc1 | 7.69 | 25.4
CCCCSCCCNC(=O)c1cn(CC)c2ccc(S(=O)(=O)N3CCOCC3)cc2c1=O | 23.7 | 44.9
CN1CCN(Cn2cc(/C=C/C(=O)c3ccccc3)c3ccccc32)CC1 | 7.95 | 26.3
COc1cccc(/C=N/Nc2nc(Nc3ccccc3)nc(-n3nc(C)cc3C)n2)c1O | < 0.2 | < 0.2
C#CCOC(=O)/C(=C/C=C/c1ccccc1)NC(=O)c1ccccc1 | 3.82 | 43.3
